From PubChem BioAssay AID276 (DTP/NCI, 2004)
Values joined by “and” are separate entries in the source; they are usually repeats but may differ in a detail not shown here. Equal entries are not always repeated. Toxic doses and inconclusive results are not listed.

Test system: B6C3F1 mice, Lewis lung carcinoma iv, survival T/C
Experiment: NCI In Vivo Anticancer Drug Screen. Data for tumor model Lewis Lung Carcinoma (intravenous) in B6C3F1 mice
Conditions: endpoint: median survival time, schedule: Q01DX009 (ip), higher = longer survival
Experimental: The antitumor activity of compounds was measured in mice bearing transplantable tumors. Survival or tumor size were measured and the results are expressed as the measurement made in the treated group (T) divided by the measurement made in the vehicle treated control group (C). The tumor model used in this assay is Lewis Lung Carcinoma (intravenous) in B6C3F1 mice

[1] = dose: 0.62 mg/kg/injection, vehicle: saline with Tween-80
[2] = dose: 1.25 mg/kg/injection, vehicle: saline with Tween-80
[3] = dose: 2.5 mg/kg/injection, vehicle: saline with Tween-80
[4] = dose: 25.0 mg/kg/injection, vehicle: saline with Tween-80
[5] = dose: 50.0 mg/kg/injection, vehicle: saline with Tween-80
[6] = dose: 100.0 mg/kg/injection, vehicle: saline with Tween-80
[7] = dose: 12.5 mg/kg/injection, vehicle: saline
[8] = dose: 25.0 mg/kg/injection, vehicle: saline
[9] = dose: 50.0 mg/kg/injection, vehicle: saline
[10] = dose: 100.0 mg/kg/injection, vehicle: saline
[11] = dose: 6.25 mg/kg/injection, vehicle: saline
[12] = dose: 12.5 mg/kg/injection, vehicle: Klucel (hydroxypropylcellulose) (HPC)
[13] = dose: 25.0 mg/kg/injection, vehicle: Klucel (hydroxypropylcellulose) (HPC)
[14] = dose: 50.0 mg/kg/injection, vehicle: Klucel (hydroxypropylcellulose) (HPC)

O=C1C=C[C@H](O)[C@@]2(CO)O[C@@H]12
T/C (dose: 0.31 mg/kg/injection, vehicle: saline with Tween-80): 101 % of control
T/C [1]: 101 % of control
T/C [2]: 114 % of control
T/C [3]: 98 % of control
T/C (dose: 5.0 mg/kg/injection, vehicle: saline with Tween-80): 102 % of control
T/C (dose: 10.0 mg/kg/injection, vehicle: saline with Tween-80): 93 % of control

Cn1c(=O)[nH]c2nncnc2c1=O
T/C (dose: 3.12 mg/kg/injection, vehicle: water): 97 % of control
T/C (dose: 6.25 mg/kg/injection, vehicle: water): 105 % of control
T/C (dose: 12.5 mg/kg/injection, vehicle: water): 102 % of control
T/C (dose: 25.0 mg/kg/injection, vehicle: water): 94 % of control
T/C (dose: 50.0 mg/kg/injection, vehicle: water): 90 % of control

O=Cc1c(O)c2ccccc2[nH]c1=O
T/C (dose: 6.25 mg/kg/injection, vehicle: saline with Tween-80): 107 % of control
T/C (dose: 12.5 mg/kg/injection, vehicle: saline with Tween-80): 105 % of control
T/C [4]: 113 % of control
T/C [5]: 107 % of control
T/C [6]: 116 % of control

Cc1nnc2ncccn12
T/C [7]: 104 % of control
T/C [8]: 110 % of control
T/C [9]: 101 % of control
T/C [10]: 96 % of control
T/C (dose: 400.0 mg/kg/injection, vehicle: saline): 103 % of control

O=N[O-].O=N[O-].O=N[O-].[Co+3].[NH-]CC[N-]CC[NH-]
T/C [11]: 98 % of control
T/C [7]: 115 % of control
T/C [8]: 117 % of control
T/C [9]: 90 % of control

O=C1N[C@@H]2C(=C[C@H](O)[C@@H](O)[C@H]2O)c2cc3c(c(O)c21)OCO3
T/C [1]: 93 % of control
T/C (dose: 0.63 mg/kg/injection, vehicle: saline with Tween-80): 112 % of control
T/C [2]: 107 % of control and 109 % of control
T/C [3]: 107 % of control and 117 % of control

OC(C1CO1)C(O)C1CO1 (stereo not given)
T/C (dose: 0.25 mg/kg/injection, vehicle: saline): 101 % of control
T/C (dose: 0.5 mg/kg/injection, vehicle: saline): 100 % of control
T/C (dose: 1.0 mg/kg/injection, vehicle: saline): 102 % of control
T/C (dose: 2.0 mg/kg/injection, vehicle: saline): 109 % of control

CC1(C)CC2(C)OC2C2(C1)N=NC(=Nc1ccccc1)O2 (stereo not given)
T/C [4]: 97 % of control
T/C [5]: 100 % of control
T/C [6]: 106 % of control

CC[PH+](CC)CC[S-].CC[PH+](CC)CC[S-].[Au+].[Au+]
T/C (dose: 2.5 mg/kg/injection, vehicle: Klucel (hydroxypropylcellulose) (HPC)): 99 % of control
T/C (dose: 5.0 mg/kg/injection, vehicle: Klucel (hydroxypropylcellulose) (HPC)): 100 % of control
T/C (dose: 10.0 mg/kg/injection, vehicle: Klucel (hydroxypropylcellulose) (HPC)): 98 % of control
T/C (dose: 20.0 mg/kg/injection, vehicle: Klucel (hydroxypropylcellulose) (HPC)): 96 % of control

C=C(C(=O)O)C(N)C(=O)O (stereo not given)
T/C [8]: 95 % of control
T/C [9]: 102 % of control
T/C [10]: 100 % of control
T/C (dose: 200.0 mg/kg/injection, vehicle: saline): 117 % of control

Nc1ccc2c(c1)CN1C(=O)c3ccccc3C1=N2
T/C [4]: 117 % of control
T/C [5]: 116 % of control

CC(C)N1CC(COc2cccc3ccccc23)OP1(=O)N(CCCl)CCCl (stereo not given)
T/C (dose: 1.56 mg/kg/injection, vehicle: distilled water + Tween-80): 98 % of control
T/C (dose: 3.13 mg/kg/injection, vehicle: distilled water + Tween-80): 96 % of control
T/C (dose: 6.25 mg/kg/injection, vehicle: distilled water + Tween-80): 101 % of control
T/C (dose: 12.5 mg/kg/injection, vehicle: distilled water + Tween-80): 102 % of control
T/C (dose: 25.0 mg/kg/injection, vehicle: distilled water + Tween-80): 102 % of control
T/C (dose: 50.0 mg/kg/injection, vehicle: distilled water + Tween-80): 95 % of control
T/C (dose: 100.0 mg/kg/injection, vehicle: distilled water + Tween-80): 106 % of control
T/C (dose: 200.0 mg/kg/injection, vehicle: distilled water + Tween-80): 90 % of control
T/C (dose: 400.0 mg/kg/injection, vehicle: distilled water + Tween-80): 90 % of control

NC(CSC(c1ccccc1)(c1ccccc1)c1ccccc1)C(=O)O (stereo not given)
T/C (dose: 3.12 mg/kg/injection, vehicle: Klucel (hydroxypropylcellulose) (HPC)): 116 % of control
T/C (dose: 6.25 mg/kg/injection, vehicle: Klucel (hydroxypropylcellulose) (HPC)): 96 % of control
T/C [12]: 111 % of control
T/C [13]: 102 % of control
T/C [14]: 107 % of control

OCCN1CCN(CC/C=C2/c3ccccc3Sc3ccc(Cl)cc32)CC1
T/C (dose: 1.56 mg/kg/injection, vehicle: saline): 99 % of control
T/C (dose: 3.12 mg/kg/injection, vehicle: saline): 103 % of control
T/C [11]: 98 % of control
T/C [7]: 103 % of control
T/C [8]: 110 % of control

CN(C)c1nc(N(C)C)nc(N(C)C)n1
T/C [4]: 101 % of control
T/C [5]: 114 % of control
T/C [6]: 109 % of control
T/C (dose: 200.0 mg/kg/injection, vehicle: saline with Tween-80): 111 % of control

C[C@@](O)(/C=C/[C@H]1CC=CC(=O)O1)[C@@H](C[C@@H](O)\C=C/C=C\C=C\CO)OP(=O)(O)O
T/C (dose: 1.56 mg/kg/injection, vehicle: other): 93 % of control
T/C (dose: 3.12 mg/kg/injection, vehicle: other): 91 % of control and 93 % of control and 100 % of control
T/C (dose: 6.25 mg/kg/injection, vehicle: other): 92 % of control and 95 % of control and 98 % of control
T/C (dose: 12.5 mg/kg/injection, vehicle: other): 100 % of control and 103 % of control (2×)
T/C (dose: 25.0 mg/kg/injection, vehicle: other): 114 % of control

Cc1cc2c(C(C)C)c(O)c(O)c(C=O)c2c(O)c1-c1c(C)cc2c(C(C)C)c(O)c(O)c(C=O)c2c1O
T/C (dose: 0.37 mg/kg/injection, vehicle: saline with Tween-80): 101 % of control
T/C (dose: 0.75 mg/kg/injection, vehicle: saline with Tween-80): 101 % of control
T/C (dose: 1.5 mg/kg/injection, vehicle: saline with Tween-80): 105 % of control
T/C (dose: 3.0 mg/kg/injection, vehicle: saline with Tween-80): 106 % of control

COc1cc(C2c3cc4c(cc3[C@@H](OC3OC5CO[C@@H](C)OC5C(O)C3O)[C@H]3COC(=O)C23)OCO4)cc(OC)c1OC (stereo not given in full)
T/C [7]: 113 % of control
T/C [8]: 121 % of control
T/C [9]: 117 % of control
T/C [10]: 191 % of control

COc1cc(C2c3cc4c(cc3C(O)C(CO)C2CO)OCO4)cc(OC)c1OC (stereo not given)
T/C [12]: 102 % of control
T/C [13]: 104 % of control
T/C [14]: 102 % of control
T/C (dose: 100.0 mg/kg/injection, vehicle: Klucel (hydroxypropylcellulose) (HPC)): 113 % of control

[N-]=[N+]=[N-]
T/C (dose: 1.5 mg/kg/injection, vehicle: saline): 96 % of control
T/C (dose: 3.0 mg/kg/injection, vehicle: saline): 98 % of control
T/C (dose: 6.0 mg/kg/injection, vehicle: saline): 106 % of control
T/C (dose: 12.0 mg/kg/injection, vehicle: saline): 95 % of control
